Test results taken from US12109284B2, “Compositions comprising fluoride and calcium and method for preparing them” (DENTHERAPY LTD, priority 2016, dated 2024).

Assays:
[1] = Microindentation cycling re-mineralisation model (Example 4); set-up: species or system human
Description: Citric acid eroded human enamel specimens were placed into a cycling re-mineralisation model where they were cycled between a treatment, artificial saliva and citric acid five times a day over five days. Three different treatments were tested and were: 1. 2% OPN formulation containing 500 ppm fluoride. 2. 500 ppm fluoride solution. 3. Deionised water. At the end of each of the five days the micro hardness of the enamel was measured by Vickers microindentation to determine the extent of the re-mineralisation of the enamel lesions.
The microhardness of the enamel was determined by indentation using a Vickers diamond-tip indenter. Each hardness value was determined from the average of ten individual measurements made centrally on each enamel specimen using 1.9N force over an indent time of 20 seconds. At the start of each set of measurements a calibration check was performed using a standard metal block to ensure the reproducibility of microhardness was within 3% of the test block micro hardness.

[2] = cited from earlier work; for Buffer range: pH

Molecule	Trend in remineralisation (microhardness ranking) ([1]; Day 1)	Trend in remineralisation (microhardness ranking) ([1]; Day 2)	Trend in remineralisation (microhardness ranking) ([1]; Day 3)	Trend in remineralisation (microhardness ranking) ([1]; Day 4 (probability 0.06))	Trend in remineralisation (microhardness ranking) ([1]; Day 5)	Increase in hardness of eroded enamel compared to deionised water ([1]; all time points)	Buffer range [2]	pKa [2]
[F-].[Na+] [NaF, sodium fluoride]	OPN = NaF > DI water	OPN = NaF > DI water	NaF = OPN > DI water	OPN = NaF > DI water	OPN > NaF > DI water	statistically superior to deionised water	–	–
O=C([O-])O.[Na+] [sodium bicarbonate]	–	–	–	–	–	–	5.1-8.0	–
tris(hydroxymethyl)aminomethane	–	–	–	–	–	–	7.5-9.5	8.97
